This is an account of results in patent publication US8357634B2, “N-alkoxycarboxamides and their use as microbiocides” (Syngenta Crop Protection LLC, priority 2009, dated 2013).

For data set [1], the system named is Puccinia recondita. Description: Example B-7: Curative action against Puccinia recondita (brown rust) on wheat leaf segments. In kind it is in vivo. The settings on record: Puccinia recondita, foliar, 0.02% active ingredient sprayed one day after inoculation, 8 days after inoculation, read-out: curative fungicidal activity (inhibition). As for the experimental part:
Curative Action Against Puccinia recondita (Brown Rust) on Wheat Wheat leaf segments were placed on agar in multiwell plates (24-well format) and inoculated with a spore suspension of the fungus. One day after inoculation the leaf segments were sprayed with test solutions (0.02% active ingredient). After appropriate incubation the activity of a compound was assessed 8 days after inoculation as curative fungicidal activity.

Data set [2] deals with Septoria tritici. Briefly: Example B-3: Action against Septoria tritici, fungal growth assay. The data set is classed as cell-based. The settings on record: Zymoseptoria tritici; 0.002% active ingredient; PDB broth, 24° C., photometric after 72 hrs. Here is the method: (§1) Action Against Septoria tritici—Fungal Growth Assay Conidia of the fungus from cryogenic storage were directly mixed into nutrient broth (PDB potato dextrose broth). After placing a (DMSO) solution of the test compounds (0.002% active ingredient) into a microtiter plate (96-well format) the nutrient broth containing the fungal spores was added. The test plates were incubated at 24° C. and the inhibition of growth was determined photometrically after 72 hrs. The activity of a compound was expressed as fungal growth inhibition (0=no growth inhibition, ratings of 80% to 99% mean good to very good inhibition, 100%=complete inhibition).

The subject of data set [3] is Mycosphaerella arachidis (Cercospora arachidicola). Briefly: Example B-2: Action against Mycosphaerella arachidis, fungal growth assay. In kind it is cell-based. The settings on record: 0.002% active ingredient, PDB broth, 24° C., photometric after 6-7 days. As for the experimental part: as §1, with “Mycosphaerella arachidis (Early Leaf Spot of Groundnut; Cercospora arachidicola [fanamorph])—Fungal” for “Septoria tritici—Fungal”, “measured” for “determined”, “6-7 days.” for “72 hrs.”

For data set [4], the system named is Pyrenophora teres. Briefly: Example B-8: Action against Pyrenophora teres (net blotch) on barley leaf segments. In kind it is in vivo. Particulars: foliar, 96 h, 0.02% active ingredient, 4 days after inoculation, read-out: preventive fungicidal activity (inhibition). Here is the method: Action Against Pyrenophora teres (Net Blotch) on Barley Barley leaf segments were placed on agar in multiwell plates (24-well format) and sprayed with test solutions (0.02% active ingredient). After drying, the leaf disks were inoculated with a spore suspension of the fungus. After appropriate incubation the activity of a compound was assessed 4 days after inoculation as preventive fungicidal activity.

Data set [5] has as its system Erysiphe graminis f. sp. tritici. Description: Example B-5: Action against Erysiphe graminis f. sp. tritici (wheat powdery mildew), wheat leaf segments. In kind it is in vivo. Particulars: Blumeria graminis, foliar, 168 h, 0.02% active ingredient, 7 days after inoculation, read-out: preventive fungicidal activity (inhibition). Here is the method:
Action Against Erysiphe graminis f. sp. tritici (Wheat Powdery Mildew) Wheat leaf segments were placed on agar in multiwell plates (24-well format) and sprayed with test solutions (0.02% active ingredient). After drying, the leaf disks were inoculated with a spore suspension of the fungus. After appropriate incubation the activity of a compound was assessed 7 days after inoculation as preventive fungicidal activity.

In data set [6] the test system is Puccinia recondita. Description: Example B-6: Protective action against Puccinia recondita (brown rust) on wheat leaf segments. The settings on record: foliar, 192 h, 0.02% active ingredient, 8 days after inoculation, read-out: preventive fungicidal activity (inhibition). In kind it is in vivo. As for the experimental part:
Protective Action Against Puccinia recondita (Brown Rust) on Wheat Wheat leaf segments were placed on agar in multiwell plates (24-well format) and sprayed with test solutions (0.02% active ingredient). After drying, the leaf disks were inoculated with a spore suspension of the fungus. After appropriate incubation the activity of a compound was assessed 8 days after inoculation as preventive fungicidal activity.

The subject of data set [7] is Botrvtis cinerea. Briefly: Example B-1: Action against Botrytis cinerea, fungal growth assay. In kind it is cell-based. The settings on record: 0.002% active ingredient, PDB broth, 24° C., photometric after 3-4 days. Here is the method: as §1, with “Action against Botrvtis cinerea—fungal growth assay” for “Action Against Septoria tritici—Fungal Growth Assay”, “storage was” for “storage were”, “was measured” for “was determined”, “after 3-4 days.” for “after 72 hrs.”

Each structure is given as a SMILES string.

`CON(C(=O)c1cn(C)nc1C(F)F)C(C)c1cccc(I)c1` (stereo not shown) [Compound 1.014, 3-Difluoromethyl-1-methyl-1H-pyrazole-4-carboxylic acid [1-(3-iodo-phenyl)-ethyl]-methoxy-amide] yielded a melting point of 136 to 138 °C. Further, the inhibition at 0.02 % strength in data set [1] was not below 80%. This molecule also had an inhibition at 0.002 % strength in data set [2] not below 80%. In data set [3], this molecule gave an inhibition at 0.002 % strength not below 80%. In addition, the inhibition at 0.02 % strength in data set [4] was not below 80%. Further, the inhibition at 0.02 % strength in data set [5] was not below 80%. Further, the inhibition at 0.02 % strength in data set [6] was not below 80%. Moreover, the inhibition at 0.002 % strength in data set [7] is not below 80%.

For `CON(Cc1ccc(Cl)cc1Cl)C(=O)c1cn(C)nc1C(F)F` [Compound 1.091, 3-difluoromethyl-1-methyl-1H-pyrazole-4-carboxylic acid (2,4-dichlorobenzyl)-methoxy-amide], the figures for the inhibition at 0.02 % strength in data set [1], in data set [4] and in data set [6] were 50%, not below 80% and not below 80%, respectively. The inhibition at 0.002 % strength in data set [2] and in data set [3] was not below 80% in each case.
